These results are taken from patent US4080471A, “Use of substituted isopropylaminopropanols for inducing inotropic effects of the human heart” (priority 1976, dated 1978).

Entries after “also recorded” stand apart in the source; their conditions may differ.

Data set [1] deals with heart. Briefly: Repetitive ventricular response (RVR) / spontaneous arrhythmia in the anesthetized dog. The format is in vivo. The source says:
Effects of Compound I and Ouabain On the Heart Contractility and Rhythmicity of the Anesthetized Dog
The object of the test was to compare compound I and oubain administered alone and in combination with each other to study the inotropic effect (maximum dP/dt in the left ventricle) and a possibly arrhythmic effect. The latter included an investigation of the ability of the compounds to cause repetitive ventricular response (RVR) when the heart was electrically stimulated via an electrode on the ventricle at the electrically vulnerable phase at the end of the T-wave. Klein et al. (M. Klein, N. S. Nejad, B. Lown, F. Hagemeijer and I. Blair, Circulation Research, 29, 635 (1971)) have shown that digitalis caused RVR at a dose which was about 70% of the dose giving spontaneous ventricular arrhythmias.
The dog was anesthetized with Mebumal® 30 mg/kg bodyweight i.v. Artificial respiration was applied. The sinus-node was electrocoagulated and the heart frequency was kept constant at 180 beats/minute in each test by electrical pacing of the auricle. Mean arterial blood pressure was registered from the carotis artery. ECG was registered during the test. Further, the pressure in the left ventricle was registered via a catheter inserted through the apex and connected to a pressure transducer. The intraventricular pressure curve was derivated to obtain maximum dP/dt which is a measure of the contractile force of the heart.
The test was started with a series of control registrations, whereupon the compounds were administered 3 times by infusion during five minutes and with an interval of 50 minutes between each infusion.
In the experiment with compound I only, the compound was administered in two doses of 10 μg/kg bodyweight and then one dose of 20 μg/kg bodyweight. Ouabain was given in 3 consecutive doses of 20 μg/kg bodyweight. In the combination test ouabain was first given in a dose of 20 μg/kg bodyweight followed by two doses of compound I of 10 and 20 μg/kg bodyweight, respectively.

Another data set concerns cardiac beta-receptors. Briefly: Chronotropic (heart frequency) and inotropic (maximum dP/dt) effects in reserpinized, anesthetized, vagotomized cat. The data set is classed as in vivo. The method, then:
Chronotropic (Heart Frequency) and Inotropic (Contractile Force) Effects
The mean blood pressure was regulated with an adjustable clamp around the descending aorta. All registrations were than able to be done at a constant pressure in aorta (afterload). The compounds were administered by infusion intravenously in increasing doses. The dose-response curves as regards the heart frequency and maximum dP/dt were constructed, from which the ED50 -values were estimated.
Maximum dP/dt is a measure of the contractile force of the heart, i.e. inotropy, but is influenced by changes in the heart frequency, filling pressure (preload) and aortic blood pressure (afterload). In this test, a comparison between inotropic and chronotropic effects can be done at the same heart frequency. Further, the aortic blood pressure is kept constant.

Data set [2] deals with heart. The data set is described as follows: Effect on heart chronotropy and inotropy of a conscious dog. The source says: During anesthesia a catheter was introduced in the aorta, an electromagnetic flow probe was placed around the ascending aorta, and induction coils were placed diametrically on the inside of the left ventricle. The experiments were started about 2 weeks after the incision, when the dog had recovered completely.
When the dog was resting, the arterial blood pressure, the flow in the aorta, the maximum flow acceleration in the aorta (maximum dF/dt), heart frequency, the diameter of the left ventricle, and ECG were registered. The effects of compounds I and II were registered at 10, 20, and 30 minutes after administration. […] The compounds were given intravenously in the following doses. […] In order to eliminate vagal influence on the heart the dog was pretreated with methyl scopolamine 0.012 mg/kg bodyweight intramuscularily 20 minutes before the administration of the compounds. From the data giving the diameter of the left ventricle, the end diastolic volume was calculated according to E. W. Hawthorne. Mean ejection rate (ml/sec.) was calculated by dividing the stroke volume with the ejection time. […] The values given are the percentage changes after administration when the heart frequency has increased 10 beats per minute, values interpolated. […] In order to compare the inotropic effects of ouabain with those of the other compounds, the heart was stimulated in these experiments by electric pacing to a frequency which was 10 beats/minute above that registered before administration.
In order to investigate the absorption and duration of the effect, compounds I and II were given orally in an amount of 100 μg/kg bodyweight.

Data set [3] relates to heart. The data set is described as follows: Ventricular arrhythmia in dogs after two-stage ligation of the left anterior coronary artery (third day post infarction). The data set is classed as in vivo, dog. On the procedure: Harris, A. S. Delayed Development of Ventricular Ectopic Rhythms following Coronary Occlusion, Cir. l, p 1318, (1950) described a method of two-stage ligation of the left anterior coronary artery in the dog. This method produces a multifocal ventricular arrhythmia that generally remains persistent on the first post ligation day (day 1-24 hours post infarct). The arrhythmia slowly disappears, and by the third post-ligation day the animal has essentially a normal sinus rhythm.
Maling, H. M. and Moran, N. C., Ventricular Arrhythmias Induced by Sympathominetic Amines in Unanesthetized Dogs Following Coronary Artery Occlussion, Cir.
METHODS, MATERIALS AND EXPERIMENTAL DESIGN
Seventeen adult female beagle dogs were used. Their ages ranged from one to three years. These animals were divided into two groups.
The first group consisted of 12 dogs and served as a control group. All animals were subjected to a two-stage ligation of the left anterior coronary artery. On the first post operative day these twelve animals were given various experimental antiarrhythmic agents as part of a routine testing procedure. It should be noted that, due to the nature of these agents, there would be no test drug or only trace amounts of test drug in the blood on day 3, and these amounts would cause little or no change on the outcome of a third day test. It should also be noted that all twelve of these animals has at least 85% ventricular ectopic beats on the morning after surgery in order to be accepted for testing.
On the third day post infarction the dogs were suspended in a standing position in a canvas sling. No anesthesia or sedation was used. ECGs were recorded as well as blood pressure. After a control period, an infusion of 20 μg/kg min. of 1-norepinephrine was begun using a Harvard infusion/withdrawal pump. This infusion lasted 120 minutes.
These five animals were all subjected to a two stage ligation of the anterior descending coronary artery. On day 1 and day 2 each dog was suspended in a canvas sling in the standing position and ECG, blood pressure, and other physiologic measurements were taken. […]

Setting [4] is: change i.v. at heart frequency +10 beats/min, interpolated, ouabain 30 μg/kg i.v., paced.

With `CC(C)NCC(O)COc1ccc(O)cc1` (centres unmarked) [Compound I, 1-isopropylamino-3-(p-hydroxyphenoxy)-propanol-2], in the data set on heart [1] (compound I 10 and 20 μg/kg bodyweight), the “RVR or spontaneous arrhythmia (in words)” value is recorded as “did not in any case cause RVR or spontaneous arrhythmia”. Moreover, in the data set with heart [1] (dog, in vivo), the “arrhythmogenic effect in relation to inotropic effect, versus ouabain (in words)” value was “evidently less arrhythmogenic effect than ouabain”. In the data set with cardiac beta-receptors (cat, i.v. infusion), the “auricle pressure (filling pressure)” value is “decreased”. Further, in the data set with cardiac beta-receptors (in vivo), the “affinity to cardiac beta-receptors giving inotropic versus chronotropic effects (in words)” value is given as “higher affinity to cardiac beta-receptors, which give inotropic effects, than to beta-receptors in the sinus-node region, which give chronotropic effects”. Besides, the “time of maximum effect, oral” value with heart [2] (100 μg/kg bodyweight orally) worked out at 30 min. In addition, the Enddiastolic volume in the data set with heart [2] (change i.v. at heart frequency +10 beats/min, interpolated, calculated from left ventricle diameter, ouabain 30 μg/kg i.v., paced) was -9%. The Stroke volume with heart [2] (change i.v. at heart frequency +10 beats/min, interpolated, methyl scopolamine pretreated, ouabain 30 μg/kg i.v., paced) is 5%. Further, in the data set with heart [2] (setting [4]), the “Mean arterial blood pressure” value is 0 mm Hg and the Peak aortic flow was determined as 22%. In the data set with heart [2] (change i.v. at heart frequency +10 beats/min, interpolated, stroke volume / ejection time, ouabain 30 μg/kg i.v., paced), the Mean ejection rate is listed as 13%. Besides, the side effects entry in the data set on heart [2] (conscious dog, I and II 10 and 20 μg/kg, ouabain 30 μg/kg i.v.) was “No side effect was observed”. Besides, in the data set on heart [2] (i.v.), the “contractility / inotropic effect in conscious dog (in words)” value is reported as “clear inotropic effect without any significant increase of the heart frequency; also recorded: increases the contractility of the left ventricle”. For the same compound, in the data set on heart [2] (maximum flow acceleration in aorta, change i.v. at heart frequency +10 beats/min, interpolated, ouabain 30 μg/kg i.v., paced), the “Max. dF/dt” value came to 43%. Besides, in the data set with heart [2] (oral, 100 μg/kg bodyweight), the “oral effect (in words)” value was “good inotropic effect when administered perorally and an acceptable duration of action; also recorded: comparable with those obtained after intravenous administration of 20 μg/kg bodyweight”. In addition, in the data set on heart [2] (versus relatively high dose of ouabain), the “positive inotropic effect compared with ouabain (in words)” value was “quite comparable to the effect of a high dose of ouabain; also recorded: comparable to the effect of the relatively high dose of ouabain”. In addition, in the data set with heart [3] (60 minutes after compound I infusion), the “ectopic activity in postdrug observation period” value is “essentially no ectopic activity”. Further, the “arrhythmogenic effect (in words)” value in the data set with heart [3] (compound I 1.0 mg/kg/min i.v. for twenty minutes, day 3 post infarct) was “not arrhythmogenic; also recorded: the few ectopic beats seen during the predrug control were slightly suppressed; also recorded: lacks arrhythmogenic properties”.
